Assay results published in patent US4232155A, “Purine compounds” (Bristol-Myers Company, priority 1979, dated 1980).
≈ marks a conversion by molar mass, not a printed value. Each block holds one compound with its values, some of them ahead of it.

What was measured:
guinea pig = test: In vivo bronchodilator and hypotensive activity (intratracheal pressure and arterial blood pressure in anesthetized guinea pig); details: intravenous; for ABP ED20 (dose which reduces arterial blood pressure by 20%): hypotensive activity; for ED50: Cavia porcellus, bronchodilator activity, read-out: ITP ED50 (dose resulting in a 50% decrease in intratracheal pressure); for Ratio ABP/ITP (hypotensive ED20/bronchodilating ED50): separation of bronchodilator from hypotensive effect
Method: The trachea of anesthetized guinea pig was cannulated and the ITP recorded on a polygraph under artificial ventilation. Arterial blood pressure (ABP; reflecting hypotensive activity) was also measured during the experiment. Either intravenous or intraduodenal routes of administration are used. […] The ratio of hypotensive ED20 /brochodilating ED50 reflects an assessment of the separation of desirable brochodilator activity from undesirable cardiovascular (hypotensive) effect in the compounds.

[1] = system: Tracheal chains of guinea pig; test: In vitro bronchodilator activity, relaxation of tracheal chains (Magnus method); details: Cavia porcellus, relative to 0.1 mcg./ml. isoproterenol, read-out: EC50 (concentration producing a relaxation which is 50% of the maximum response to 0.1 mcg./ml. of isoproterenol)
Method: Tracheal chains of guinea pig were prepared by the method of A. Akcasu, Arch. Int. […] The response to each test compound was recorded by the Magnus method and expressed as a percentage of the maximum response obtained with 0.1 mcg./ml. of isoproterenol prior to each experiment.

EC50 [1]: 0.47 µg/mL (≈ 1.73 µM)
Compound: CCCNc1nc(N)c2ncn(C3C=CCCC3)c2n1 (centres unmarked) [Example 1, 9-(2-Cyclohexenyl)-2-n-propylamino-9H-adenine]
ED50 (guinea pig): 1.4 mg/kg | ABP ED20 (dose which reduces arterial blood pressure by 20%) (guinea pig): > 3 mg/kg | Ratio ABP/ITP (hypotensive ED20/bronchodilating ED50) (guinea pig): > 2.1

EC50 [1]: 0.24 µg/mL (≈ 0.768 µM)
Compound: Nc1nc(NC2CCCCC2)nc2c1ncn2C1C=CCCC1 (centres unmarked) [Example 2, 9-(2-Cyclohexenyl)-2-cyclohexylamino-9H-adenine]
ED50 (guinea pig): > 3 mg/kg | ABP ED20 (dose which reduces arterial blood pressure by 20%) (guinea pig): 2.4 mg/kg | Ratio ABP/ITP (hypotensive ED20/bronchodilating ED50) (guinea pig): < 0.8

EC50 [1]: 0.21 µg/mL (≈ 0.668 µM)
Compound: Nc1nc(NC2CCCCC2)nc2c1ncn2C1CCCCC1 [Example 4, 9-Cyclohexyl-2-cyclohexylamino-9H-adenine]
ED50 (guinea pig): 1.5 mg/kg | ABP ED20 (dose which reduces arterial blood pressure by 20%) (guinea pig): > 3 mg/kg | Ratio ABP/ITP (hypotensive ED20/bronchodilating ED50) (guinea pig): > 2

Second part, the compound before the results:

Compound: Cn1c(=O)c2[nH]cnc2n(C)c1=O [Aminophylline, reference compound]
ABP ED20 (dose which reduces arterial blood pressure by 20%) (guinea pig): 1.4 mg/kg

Compound: CCCNc1nc(N)c2ncn(C3CCCCC3)c2n1 [Example 3, 9-Cyclohexyl-2-n-propylamino-9H-adenine]
ED50 (guinea pig): 0.49 mg/kg | ABP ED20 (dose which reduces arterial blood pressure by 20%) (guinea pig): 2.8 mg/kg | Ratio ABP/ITP (hypotensive ED20/bronchodilating ED50) (guinea pig): 5.7 | EC50 [1]: 0.75 µg/mL (≈ 2.73 µM)
